# Results: US11306054B2, “Propanediol monoacetate mononitrate” (DSM IP ASSETS B.V., priority 2017, dated 2022)
# Test system: S. epidermidis, C. xerosis, M. furfur, P. Acnes
# Assay: Antimicrobial efficacy, challenge test, overall conclusion on the strains of table 1
# Assay type: cell-based
# Conditions: conclusion from table 1; almost comparable to Phenonip
# Protocol: The antimicrobial efficacy of propanediol monoacetate mononitrate (PDMAMN) is assessed in analogy to the regulatory challenge test method (NF EN ISO11930). The following test solutions were tested • 1. Inv 1: 400 mg PDMAMN in 1 ml PEG 400 were diluted with 40 mL physiological serum (0.85% NaCl) containing 7% Ethanol (˜1% of PDMAMN) • 2. Inv 2: 200 mg PDMAMN in 1 ml PEG 400 were diluted in 40 mL physiological serum (0.85% NaCl) containing 7% Ethanol (˜0.5% of PDMAMN) • 3. Inv 3: 40 mg 3-PDMAMN in 1 ml PEG 400 were diluted in 40 mL physiological serum (0.85% NaCl) containing 7% Ethanol (˜0.1% of PDMAMN) • 4. Ref 1: Physiological serum (0.85% NaCl) • 5. Ref 2: 1 mL PEG 400+40 mL physiological serum (0.85% NaCl) containing 7% Ethanol • 6. Control: 0.5% Phenonip in physiological serum (0.85% NaCl)
# All test solutions were deposed in 96-deep well plates (1.6 ml/well). The wells were contaminated with the respective bacterial or the fungal strains as outlined in table 1*10^5 to 1*10^6 cfu/ml for the bacteria and 1*10^4 to 1*10^5 cfu/ml for the fungi to obtain the initial contamination as outlined in table 1, Zero. After the contamination, each well was thoroughly mixed to ensure a homogeneous distribution of the microorganism. Then each plate was incubated at 22° C. for 24 h. The counting of the (remaining) population was carried out 24 h after contamination.
smiles,measurement,value
"CC(=O)OCCCO[N+](=O)[O-] [propanediol monoacetate mononitrate, 1,3-propanediol monoacetate mononitrate]",antimicrobial activity,excellent antimicrobial activity
